Reference: PMC7700373, “Polyphenolic and Methylxanthine Bioaccessibility of Cocoa Bean Shell Functional Biscuits: Metabolomics Approach and Intestinal Permeability through Caco-2 Cell Models” (Antioxidants, 2020)
Like-named read-outs stand apart in the source and are kept apart here.

Legend:
[1] = system: Caco-2 cells; conditions: cited from earlier work; for Papp values: in purified extracts, ref Kosińska et al.
[2] = system: Caco-2 cell monolayers
[3] = Single compound bioaccessibility: LC–HRMS intensities after in vitro gastrointestinal digestion vs other extractions; assay type: in vitro ADME; conditions: whole sample set, Dig vs Org and No_Dig
Description: Five grams of each sample underwent in vitro gastrointestinal digestion. The simulated digestion was performed following the three-stage model (oral, gastric, and intestinal phases) proposed by the INFOGEST consortium and described by Minekus et al. [13] with the slight modifications described in [14]. Briefly, during the oral phase (2 min), samples were mixed at 37 °C in a SW-20 water bath (Julabo GmbH, Seelbach, Germany) with an electrolyte solution to simulate salivary fluid and with amylase enzyme. Samples then underwent a gastric phase (2 h) in which they were mixed with simulated gastric fluid and pepsin enzyme. Finally, during the intestinal phase (2 h), samples from the gastric phase were mixed with simulated intestinal fluid, bile salts, and pancreatin. Solutions were adjusted to pH 3 and 7 for the gastric and intestinal phases, respectively, with a MICROpH 2002 pH-meter (CRISON, Carpi, Italy), and the digestion process was stopped by bringing the pH down to 5.4. Samples were then centrifuged at 12,500× g and 0 °C for 10 min in a Heraeus megafuge 11R centrifuge (THERMO electron, Chateau-Gontier (France), and the supernatants were filtered through a 0.45 μm CA syringe filters and immediately stored at −20 °C until further analysis. The digestion process was replicated four times for each sample. Digestion blanks in which the whole sample was replaced with 5 mL of water were also prepared in order to monitor the possible contributions of the enzymes and salts employed during in vitro digestion in the subsequent analytic determinations.
Non-digestion extraction was performed to allow a comparison with the samples digested in vitro. This employed the same temperature and time conditions and the same weight and volume ratios. Samples were extracted at 37 °C for 4 h and 2 min (the whole time for the simulated gastrointestinal digestion) with just Milli-Q water and without enzymes or simulated fluids in order to avoid food matrix degradation due to those components. After this, non-digested samples were centrifuged and filtered in the same way as the digested samples.
Characterization of polyphenols and methylxanthines from all the extract types (Org, Dig, and No_Dig) of the samples was performed with an untargeted metabolomics approach by using a rapid-resolution LC system (RRLC) 1200 series (Agilent Technologies, Waldbronn, Germany), including a binary pump, thermostatized autosampler, column oven, and a DAD detector. The RRLC system was coupled to a 6520 series electrospray ionization (ESI) source with a quadrupole time-of-flight (QTOF) mass spectrometer (Agilent Technologies). Compound separation was performed using an InfinityLab Poroshell 120EC-C18 column (2.1 × 100 mm, particle size of 2.7 μm) with a guard column (2.1 × 5 mm) (Agilent Technologies). […]

[4] = in vitro; conditions: human, Caco-2

Row | Structure (SMILES) | apparent permeability [1] | Papp values [1] | T2 values relative to T1 values (absorption percentage) [2] | apparent permeability coefficients [2] | concentration (log10-intensity) after gastrointestinal digestion in comparison with the other extraction types [3] | Papp [4] | T2 values relative to T1 values (absorption percentage) ([2]; human) | detection on the basolateral side [2]
1 | O.Oc1cc(O)c2c(c1)O[C@H](c1ccc(O)c(O)c1)[C@@H](O)C2 [catechin] | 0.8 ×10⁻⁶ cm/s | 4.19 ×10⁻⁶ cm/s | 1.63-1.78 fold | 3.28-30.47 × 10^−6 cm/s | decreased |  |  | 
2 | Oc1cc(O)c2c(c1)O[C@H](c1ccc(O)c(O)c1)[C@H](O)C2 [epicatechin] |  | 3.38 ×10⁻⁶ cm/s |  |  | decreased | 3.28 to 30.5 ×10⁻⁶ cm/s | 1.56-1.86 fold | 
3 | Cn1c(=O)c2c(ncn2C)n(C)c1=O [caffeine, reference compound] |  |  |  |  | slightly decreased |  |  | 
4 | Oc1cc(O)c2c(c1)O[C@H](c1ccc(O)c(O)c1)[C@H](O)[C@H]2c1c(O)cc(O)c2c1O[C@H](c1ccc(O)c(O)c1)[C@@H](O)C2 [PCB1, procyanidin B1] |  |  |  |  | higher |  |  | not detected
